Assays:
[1] = tested on: neuroblastoma B103 cell line; assay: MTT test: apoptosis induced by staurosporin; format: cell-based; conditions: B103 cells, staurosporin-only control = 100%
Method: 5×10^3 cells of neuroblastoma B103 cell line (donated by Dr. David Schubert of the Salk Institute, USA) were placed in each well of a 96-well plate with 100 μl of DMEM (Dulbecco's Minimal Eagle's Medium) containing 10% fetal bovine serum (FBS), and cultured at 37° C. under 8% CO2 for 1 day. After changing the medium to serum-free DMEM, the cells were treated with various concentrations of test compounds and, 1 hour later, with 25 μM of beta-amyloid (25-35 peptide; US peptide, CA, USA). The cells were cultured at 37° C. for 18 hours, treated with 15 μl of MTT solution [10 mg/ml solution of 3-(4,5-dimethyl-2-thiazolyl)-2,5-diphenyl-2H-tetrazolium bromide in phosphate buffered saline (PBS)], and allowed to react at 37° C. for 3 to 4 hours. 100 μl of lysis buffer (10% SDS, 50% dimethylformamide, pH 4.7) was added to the wells, and the cells were cultured overnight at room temperature and relative humidity of 90%. Optical density (OD) of each well was measured at […] and 630 nm, respectively, using a scanning multiwell spectrophotometer, and then the OD value at 630 nm was subtracted from that at 570 nm.
Further, in order to examine whether compounds originating from ginseng can block apoptosis, […], and the survival rates of the neural cells were determined.

beta-secretase = molecular target: T1, beta-secretase (Rattus norvegicus, UniProt P56819); assay: β-secretase inhibitory activity, fluorometric, B103 cell extract; format: biochemical
T1 construct: the cells were lysed up with MEST buffer; endogenous in cells; host or cells: B103 neuroblastoma cell extract (Triton X-100 lysate)
Method: Peptide H4848 (Bachem), a known suppressor of beta-secretase, was used for a comparative agent and PPT was used as a test compound.
1.5×10^6 cells of neuroblastoma B103 cell line secreting APP were plated on a 100 mm dish with DMEM medium containing 10% FBS, and cultured overnight. Then, the cells were lysed up with MEST buffer (20 mM MES, 0.15 M NaCl, 0.5% Triton X-100, pH 6.0 (Bachem)) to obtain a cell extract.
[…] sodium acetate buffer (pH 4.5), distilled water, beta-secretase inhibitor, 5 μM M2465 (Bachem) as a substrate for beta-secretase and MEST buffer were mixed in order, in amounts as shown in Table 5.
The resulting mixtures were reacted at […] for 2 hours, and then read by a fluorometer with 360 nm excitation and 508 nm emission wavelengths. Enzyme inhibitory activity was determined based on the enzyme activity of the control.

[2] = Degree of BBB penetration: pharmacokinetics in blood and brain by LC-mass; format: in vivo, Sprague-Dawley rat; conditions: SD rat; for detection of the peak in the brain tissue sample: 15 minutes after administration of 1 mg/kg of Rg1 or Rb1, FIGS. 10a and 10b
Method: A male Sprague-Dawley rat (weight 250-300 g) was lightly anesthetized with ether and catheterized with a polyethylene tube (PE-50) in the femoral artery and vein. After the rat recovered, a saline solution containing 1 mg/kg of Rg1 or Rb1 was administered into the femoral vein through the intravenous bolus administration. 300 μl blood samples were collected from the rat's femoral artery at 2, 5, 10, 15, 20, 30, 45 and 60 minutes after the administration. Each blood sample was centrifuged to obtain 100 μl of plasma. A plasma sample was prepared as in (2) of step 1 with the plasma. 20 μl of the sample was injected into the LC mass system as in Step 1, and ginsenosides Rg1 and Rb1 and their metabolites PPD and PPT were quantified. The plasma concentrations of ginsenosides and their metabolites were calculated in the forms of weight per plasma (ml) (in case of ginsenosides) or peak size (in case of metabolites).
Immediately after collecting the blood samples, the rats were decapitated and brain tissues were obtained therefrom. The tissues were rinsed with ice-cooled saline, placed in a 15 ml Falcon tube and then weighed precisely. Acetonitrile was added to the tube in an amount twice the weight of the tissue sample, and the sample was homogenized using a tissue homogenizer (Ultra-Turrax T25, JANKE&KUNKEL IKA-Labortechnik). The mixture was centrifuged at 3,000 rpm for 20 minutes. 300 μl of the resulting supernatant was dried in a speed-vac, and 300 μl of acetonitrile was added thereto. 20 μl of the resulting mixture was injected in the LC mass system as in Step 1 to quantify the concentrations of ginsenosides and their metabolites in the brain, and the measured concentrations were represented by weight per gram of the brain tissue or peak size.
Separation and detection conditions for ginsenosides Rg1 and Rb1 were as described in Step 1, and those for metabolites PPD and PPT were as follows:
The transfer rate of the substances into the brain (Kbrain) can be represented by the ratio of the mean concentration of the substance in the brain (Cmean,brain) to the mean plasma concentration (Cmean,plasma) as in Equation 1. [formula]
The mean concentration of a substance can be determined by dividing the area under the concentration-time curve corresponding to time 0 to t by t and, accordingly, the transfer rate of the substance into the brain (Kbrain) can be calculated by Equation 2 shown below. [formula]

[3] = test compound 1 μM + 0.1 μM staurosporin
[4] = test compound 1 μM alone, without staurosporin

T1 sequence (P56819 46-501): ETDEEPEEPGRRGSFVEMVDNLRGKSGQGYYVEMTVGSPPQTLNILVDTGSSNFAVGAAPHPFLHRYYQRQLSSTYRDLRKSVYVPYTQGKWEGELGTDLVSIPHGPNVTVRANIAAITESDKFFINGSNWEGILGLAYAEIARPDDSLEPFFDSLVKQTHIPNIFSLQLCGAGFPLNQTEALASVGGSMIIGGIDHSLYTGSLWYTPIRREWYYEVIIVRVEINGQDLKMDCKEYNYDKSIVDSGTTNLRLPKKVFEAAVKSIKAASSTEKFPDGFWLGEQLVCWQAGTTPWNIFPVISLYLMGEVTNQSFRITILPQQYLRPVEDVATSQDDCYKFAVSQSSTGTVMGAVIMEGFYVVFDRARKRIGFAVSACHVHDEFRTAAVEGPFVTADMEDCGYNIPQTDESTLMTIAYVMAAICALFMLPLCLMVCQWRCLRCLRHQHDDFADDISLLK

| Compound | Survival rate (%) [1, 3] | Survival rate (%) [1, 4] | Survival rate (%) ([1]; test compound 10 μM + 0.1 μM staurosporin) | Survival rate (%) ([1]; test compound 10 μM alone, without staurosporin) | Enzyme Inhibition (% of control) (beta-secretase; 100 nM PPT) | Enzyme Inhibition (% of control) (beta-secretase; 1 μM PPT) | Enzyme Inhibition (% of control) (beta-secretase; 10 μM PPT) | Enzyme Inhibition (% of control) (beta-secretase; 100 μM PPT) | beta-secretase inhibitory activity versus comparative group (in words) (beta-secretase; comparative group: H4848 100 nM) | detection of the peak in the brain tissue sample [2] | transfer rate into the brain (Kbrain) ([2]; calculated with Equations 1 and 2 (mean brain / mean plasma concentration)) | concentration in the plasma versus the brain tissue (in words) ([2]; metabolite after 1 mg/kg intravenous ginsenoside, FIG. 12) |
| --- | --- | --- | --- | --- | --- | --- | --- | --- | --- | --- | --- | --- |
| CC(C)=CCC[C@](C)(O)[C@H]1CC[C@]2(C)[C@@H]1[C@H](O)C[C@@H]1[C@@]3(C)CC[C@H](O)C(C)(C)[C@@H]3[C@@H](O)C[C@]12C [PPT, protopanaxatriol] | 107.8 ± 2.3% | 169.7 ± 1.6% | 104.6 ± 2.7% | 173.1 ± 1.2% | 0 % of control | 0.6 % of control | 3.31 % of control | 18.1 % of control | as good as the comparative group | well detected | 130±46.4% | almost identical |
| CC(C)=CCCC(C)(O)[C@H]1CC[C@]2(C)[C@@H]1[C@H](O)C[C@@H]1[C@@]3(C)CC[C@H](O)C(C)(C)[C@@H]3CC[C@]12C (stereo in doubt) [PPD, protopanaxadiol] | 89.2 ± 1.0% | 176.5 ± 3.5% | – | – | – | – | – | – | – | well detected | – | – |

Source: patent publication US20050233984A1, “Composition for preventing or treating degenerative brain diseases comprising a hydrolysate of ginsenosides” (Digital Biotech Co., Ltd., priority 2002, published 2005)
